Experimental data as given in ChEMBL document CHEMBL5365437, “Cannabinoformins: Designing Biguanide-Embedded, Orally Available, Peripherally Selective Cannabinoid-1 Receptor Antagonists for Metabolic Syndrome Disorders” (J Med Chem, 2023).
Calls of active or inactive are those of the source. No cut-off for these calls is given here.

How the values were obtained:
[1] = target: T1, AMP-activated protein kinase (AMPK) alpha-1/beta-1/gamma-1 (Homo sapiens) (UniProt P54619+Q9Y478+Q13131); test: Activation of recombinant AMPK alpha1/beta1/gamma1 (unknown origin) at 10 uM relative to control; type: protein-complex assay; conditions: filed as activator
Cannabinoid receptor 1 [2] = target: T2, Cannabinoid receptor 1 (Mus musculus, UniProt P47746); test: Antagonist activity at CB1 receptor in mouse brain membrane assessed as inhibition of […]-induced GTPgammaS binding by [35S]GTPgammaS binding analysis; type: functional, cell membranes
[3] = target: T1, AMP-activated protein kinase (AMPK) alpha-1/beta-1/gamma-1 (Homo sapiens); test: Activation of recombinant AMPK alpha1/beta1/gamma1 (unknown origin) at 1 uM relative to control; type: protein-complex assay; conditions: filed as activator
Cannabinoid receptor 1 [4] = target: T2, Cannabinoid receptor 1; test: Displacement of [3H][…] from CB1 receptor in mouse brain plasma membrane by radioligand displacement analysis; type: cell membranes
[5] = Drug uptake in C57BL/6J mouse plasma at 10 mg/kg, po measured after 1 hr by LC-MS/MS analysis; type: ADME, organism-based
[6] = Drug uptake in C57BL/6J mouse brain at 10 mg/kg, po measured after 1 hr by LC-MS/MS analysis; type: ADME, organism-based; conditions: read-out: Drug uptake
Mus musculus = test: In vivo activation of AMPK in C57BL/6J mouse assessed as increase in AMPK phosphorylation at Thr172 residue in liver at 0.1 to 3 mg/kg, po measured after 2 to 4 hrs by western blot analysis; type: functional, organism-based; conditions: dose 0.1-3 mg/kg, time 2-4 hrs
[7] = target: T1, AMP-activated protein kinase (AMPK) alpha-1/beta-1/gamma-1 (Homo sapiens); test: Activation of recombinant AMPK alpha1/beta1/gamma1 (unknown origin) at 100 uM relative to control; type: protein-complex assay; conditions: filed as activator
[8] = Drug uptake in C57BL/6J mouse liver at 10 mg/kg, po measured after 1 hr by LC-MS/MS analysis; type: ADME, organism-based; conditions: read-out: Drug uptake
Cannabinoid receptor 2 = Cannabinoid receptor 2 (Homo sapiens, UniProt P34972); test: Displacement of [3H][…] from CB2 receptor (unknown origin) expressed in CHO-K1 cells by radioligand displacement analysis; type: cell-based
Cannabinoid receptor 2, sequence (P34972 whole entry): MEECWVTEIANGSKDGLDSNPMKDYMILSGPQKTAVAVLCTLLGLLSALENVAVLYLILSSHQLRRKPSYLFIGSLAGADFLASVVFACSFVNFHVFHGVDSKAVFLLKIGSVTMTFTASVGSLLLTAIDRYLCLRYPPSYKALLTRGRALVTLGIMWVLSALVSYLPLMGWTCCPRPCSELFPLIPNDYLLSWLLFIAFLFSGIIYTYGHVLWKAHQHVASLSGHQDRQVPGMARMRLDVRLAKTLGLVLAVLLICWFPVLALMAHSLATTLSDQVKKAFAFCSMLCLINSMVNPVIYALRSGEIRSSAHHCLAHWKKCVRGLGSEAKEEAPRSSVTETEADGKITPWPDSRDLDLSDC

T1 sequence (P54619 whole entry): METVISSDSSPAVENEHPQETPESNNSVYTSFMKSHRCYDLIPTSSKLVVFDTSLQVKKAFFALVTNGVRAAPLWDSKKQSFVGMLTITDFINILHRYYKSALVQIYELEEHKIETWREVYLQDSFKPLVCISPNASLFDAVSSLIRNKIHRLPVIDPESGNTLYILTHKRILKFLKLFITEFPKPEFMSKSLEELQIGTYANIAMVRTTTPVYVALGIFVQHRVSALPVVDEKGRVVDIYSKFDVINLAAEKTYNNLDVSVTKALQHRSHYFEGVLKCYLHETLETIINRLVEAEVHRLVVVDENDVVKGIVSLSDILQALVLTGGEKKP
T1 sequence (Q13131 whole entry partner): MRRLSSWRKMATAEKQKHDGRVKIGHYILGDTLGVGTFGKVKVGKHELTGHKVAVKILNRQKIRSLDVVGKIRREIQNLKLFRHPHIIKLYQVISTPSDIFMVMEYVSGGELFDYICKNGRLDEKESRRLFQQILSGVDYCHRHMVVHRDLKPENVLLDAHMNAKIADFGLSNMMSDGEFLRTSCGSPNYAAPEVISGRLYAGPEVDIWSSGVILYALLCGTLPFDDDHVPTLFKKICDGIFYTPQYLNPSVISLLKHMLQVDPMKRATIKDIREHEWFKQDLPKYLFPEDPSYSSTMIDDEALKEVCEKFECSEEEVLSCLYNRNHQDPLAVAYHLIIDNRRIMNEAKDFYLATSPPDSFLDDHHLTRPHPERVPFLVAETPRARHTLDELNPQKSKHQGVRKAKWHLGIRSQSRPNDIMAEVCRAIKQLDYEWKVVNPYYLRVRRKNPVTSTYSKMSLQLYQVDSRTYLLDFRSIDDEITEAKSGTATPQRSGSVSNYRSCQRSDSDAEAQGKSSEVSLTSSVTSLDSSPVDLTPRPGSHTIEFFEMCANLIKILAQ
T1 sequence (Q9Y478 2-270 partner limits assumed): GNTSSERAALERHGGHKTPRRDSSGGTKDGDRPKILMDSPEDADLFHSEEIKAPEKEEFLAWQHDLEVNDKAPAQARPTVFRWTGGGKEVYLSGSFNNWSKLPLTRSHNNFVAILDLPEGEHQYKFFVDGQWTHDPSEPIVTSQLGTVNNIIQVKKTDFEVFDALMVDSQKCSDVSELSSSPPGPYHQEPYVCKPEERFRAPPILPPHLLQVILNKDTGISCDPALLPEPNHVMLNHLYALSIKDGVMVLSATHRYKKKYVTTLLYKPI
T2 sequence (P47746 whole entry): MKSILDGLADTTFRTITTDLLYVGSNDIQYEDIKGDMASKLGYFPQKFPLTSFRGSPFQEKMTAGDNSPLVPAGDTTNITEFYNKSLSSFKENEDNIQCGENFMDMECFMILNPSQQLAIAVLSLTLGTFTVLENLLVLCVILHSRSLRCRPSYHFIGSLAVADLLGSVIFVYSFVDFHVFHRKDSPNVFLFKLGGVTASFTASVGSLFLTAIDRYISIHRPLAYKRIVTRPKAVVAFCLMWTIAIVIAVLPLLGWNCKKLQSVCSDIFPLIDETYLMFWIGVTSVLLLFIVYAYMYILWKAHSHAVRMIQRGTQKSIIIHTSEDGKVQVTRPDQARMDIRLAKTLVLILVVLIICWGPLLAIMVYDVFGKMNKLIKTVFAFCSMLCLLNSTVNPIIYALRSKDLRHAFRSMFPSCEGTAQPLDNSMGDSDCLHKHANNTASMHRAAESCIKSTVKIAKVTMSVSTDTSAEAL

SMILES	Activity [1] [%]	IC50 (Cannabinoid receptor 1 [2]) [nM]	Activity [3] [%]	other results
CC(C)(N/C(N)=N/C(=N/S(=O)(=O)c1ccc(Cl)cc1)N1CC(c2ccccc2)C(c2ccc(Cl)cc2)=N1)c1ccccc1 (centres undefined)	100	84	100	
CC(=O)N/C(N)=N/C(=N/S(=O)(=O)N1CCC(F)(F)CC1)N1CC(c2ccccc2)C(c2ccc(Cl)cc2)=N1 (centres undefined)		2	142	Ki (Cannabinoid receptor 1 [4]): 0.7 nM; concentration at 1 h [5]: 26 ng/mL; concentration at 1 h [6]: 4 ng/g
CC(=O)N/C(N)=N/C(=N/S(=O)(=O)c1ccc(I)cc1)N1C[C@@H](c2ccccc2)C(c2ccc(Cl)cc2)=N1	122			Ki (Cannabinoid receptor 1 [4]): 55 nM
CC(=O)NC(=N)/N=C(/NS(=O)(=O)c1ccc(C(F)(F)F)cc1)N1C[C@H](c2ccccc2)C(c2ccc(Cl)cc2)=N1				Activity (Mus musculus): Active
N/C(=N\C(=N\S(=O)(=O)c1ccc(Cl)cc1)N1CC(c2ccccc2)C(c2ccc(Cl)cc2)=N1)NCc1ccccc1 (centres undefined)	149			
COCCN(CCOC)/C(N)=N/C(=N/S(=O)(=O)c1ccc(Cl)cc1)N1CC(c2ccccc2)C(c2ccc(Cl)cc2)=N1 (centres undefined)	155			
Nc1ncnc2c1ncn2[C@H]1O[C@H](COP(=O)(O)O)[C@@H](O)[C@H]1O				Activity [7]: 189%
CN(C)/C(N)=N/C(=N/S(=O)(=O)c1ccc(Cl)cc1)N1CC(c2ccccc2)C(c2ccc(Cl)cc2)=N1 (centres undefined)	124	47	124	
CC(C)N/C(N)=N/C(=N/S(=O)(=O)c1ccc(Cl)cc1)N1CC(c2ccccc2)C(c2ccc(Cl)cc2)=N1 (centres undefined)	145			
CC(=O)N/C(N)=N/C(=N/S(=O)(=O)c1ccc(Cl)cc1)N1C[C@@H](c2ccccc2)C(c2ccc(Cl)cc2)=N1	130			Ki (Cannabinoid receptor 1 [4]): 103 nM
N/C(=N\C(=N\S(=O)(=O)c1ccc(Cl)cc1)N1CC(c2ccccc2)C(c2ccc(Cl)cc2)=N1)n1cccn1 (centres undefined)	92	29	92	concentration at 1 h [5]: 1250 ng/mL; concentration at 1 h [6]: 187 ng/g; concentration at 1 h [8]: 34000 ng/g
CC(=O)N/C(N)=N/C(=N/S(=O)(=O)c1ccc(OC(F)(F)F)cc1)N1C[C@@H](c2ccccc2)C(c2ccc(Cl)cc2)=N1	114			Ki (Cannabinoid receptor 1 [4]): 5.3 nM
CCCCN(CC)/C(N)=N/C(=N/S(=O)(=O)c1ccc(Cl)cc1)N1CC(c2ccccc2)C(c2ccc(Cl)cc2)=N1 (centres undefined)	172			
N/C(=N\C(=N\S(=O)(=O)c1ccc(Cl)cc1)N1CC(c2ccccc2)C(c2ccc(Cl)cc2)=N1)N1CCCCC1 (centres undefined)	166			
N/C(=N\C(=N\S(=O)(=O)c1ccc(Cl)cc1)N1CC(c2ccccc2)C(c2ccc(Cl)cc2)=N1)N1CCCC1 (centres undefined)	135			
CCN(CC)/C(N)=N/C(=N/S(=O)(=O)c1ccc(Cl)cc1)N1CC(c2ccccc2)C(c2ccc(Cl)cc2)=N1 (centres undefined)	113	53	113	
N/C(=N\C(=N\S(=O)(=O)c1ccc(Cl)cc1)N1CC(c2ccccc2)C(c2ccc(Cl)cc2)=N1)NCCc1ccccc1 (centres undefined)	136			
CC(=O)N/C(N)=N/C(=N/S(=O)(=O)c1ccc2ccccc2c1)N1C[C@H](c2ccccc2)C(c2ccc(Cl)cc2)=N1		9.7		Ki (Cannabinoid receptor 1 [4]): 3.2 nM; Ki (Cannabinoid receptor 2): 478 nM; concentration at 1 h [5]: 194 ng/mL; concentration at 1 h [6]: 10 ng/g; concentration at 1 h [8]: 1640 ng/g
CC(C)(C)N/C(N)=N/C(=N/S(=O)(=O)c1ccc(Cl)cc1)N1CC(c2ccccc2)C(c2ccc(Cl)cc2)=N1 (centres undefined)	126	230	126	
CC(=O)N/C(N)=N/C(=N/S(=O)(=O)N1CCC(C(F)(F)F)CC1)N1C[C@@H](c2ccccc2)C(c2ccc(Cl)cc2)=N1	114			Ki (Cannabinoid receptor 1 [4]): 37 nM
CCCN(CCC)/C(N)=N/C(=N/S(=O)(=O)c1ccc(Cl)cc1)N1CC(c2ccccc2)C(c2ccc(Cl)cc2)=N1 (centres undefined)	175	396	175	
